Values quoted from earlier work, collected in patent publication US9950023B1, “Composition for the treatment of acne” (Parham Tabibian, MD, Inc., priority 2014, dated 2018).

What was measured:
interleukin-8 (IL-8) = conditions: dose-dependent manner
[1] = test system: biofilm-associated P. acnes; conditions: in vitro; concentrations as given in the label
P. acnes biofilm = conditions: clinical tests, trans Resveratrol extracts

NC(=O)c1cccnc1 [Nicotinamide]
interleukin-8 (IL-8) production (interleukin-8 (IL-8)): decreasing interleukin-8 (IL-8) production in a dose-dependent manner

Oc1cc(Cl)ccc1Oc1ccc(Cl)cc1Cl [0.1% triclosan, triclosan]
reducing biofilm mass [1]: effective

Oc1ccc(C=Cc2cc(O)cc(O)c2)cc1 [Resveratrol]
inhibition of P. acnes biofilm formation (P. acnes biofilm): 99.2%
